Read-outs that look alike come from different tables or passages of the source.
Assays:
wild-type HIV-1 = test: microbe, parasite or virus in culture; format: cell-based
[1] = Pharmacokinetic Study of Compound A in Healthy Human Males (Example 10); format: in vivo; conditions: 20 mg single oral dose, suspension, fasted
Protocol: A double-blind, single-rising dose, alternating two-panel, four-period, placebo-controlled study was conducted for Compound A in healthy adult males in the fasted state. Single doses of 20, 50, 100, 200, 400, 800 and 1200 mg of Compound A, or placebo, were administered as an oral suspension of the sulfate salt form of Compound A in sterile water. Each subject received increasing single oral doses of Compound A or placebo during each of the four treatment periods in alternate panels. Panel A dosage levels were 20, 100, 400 mg, and 400 mg with food. Panel B dosage levels were 50, 200, 800 and 1200 mg. For each period, 6 subjects received Compound A and 2 subjects received placebo as allocated by a randomized schedule. In Panel A, subjects who received 400 mg of Compound A also received 400 mg of Compound A with food. The safety of the subjects was monitored prior and subsequent to dosing by clinical adverse event reporting, measurement of vital signs, physical examinations, blood and urine laboratory safety tests, and ECGs. Plasma concentrations of Compound A were determined predose and at 0.5, 1, 1.5, 2, 3, 4, 6, 10, 12, 24, 32 and 48 hours following each single dose in each period, using a reverse-phase HPLC column switching method with fluorescence detection.

[2] = administration to humans, plasma concentrations (general statements); format: in vivo, human
Excerpt: Compound (b) is preferably selected from the group consisting of Indinavir, Ritonavir, and pharmaceutically acceptable salts thereof, and is most preferably Indinavir or a pharmaceutically acceptable salt or ester thereof. Particularly preferred is the composition in which (a) is the sulfate salt of Compound A and (b) is the sulfate salt of Indinavir. It has been discovered that the foregoing compounds of (b), when employed in combination with Compound A, can increase the plasma concentration of Compound A to a level having substantial antiviral activity.

[3] = Pharmacokinetic Study of Compound A Alone and in Combination with Indinavir in Healthy Human Males (Example 11); format: in vivo
Protocol: A double-blind, single-rising dose, alternating two-panel, four-period, placebo-controlled study was conducted for Compound A alone and in combination with Indinavir in healthy adult males in the fasted state. […] All of the doses of Compound A were administered as the sulfate salt form of Compound A. All of the Compound A doses were oral suspensions of the sulfate salt form in sterile water, except that the 600-mg doses administered to Panel B in the fourth period were tablets. Indinavir was administered in the form of CRIXIVAN® capsules. The safety of the subjects was monitored prior and subsequent to dosing by clinical adverse event reporting, measurement of vital signs, physical examinations, blood and urine laboratory safety tests, and ECGs. Plasma concentrations of Compound A were determined predose and at 0.5, 1, 1.5, 2, 3, 4, 6, 8, 12, 16, 20, 24, 30, 36 and 48 hours following each single dose in each period, using a reverse-phase HPLC column switching method with fluorescence detection.

[4] = Pharmacokinetic Study in Healthy Human Males of Compound A in Combination with Indinavir with and without Fasting (Example 12); format: in vivo; conditions: co-administered with Indinavir, with food vs without food
Protocol: All of the subjects received the regimen once in the fasted state and once with a high-fat breakfast. The two single-dose treatments (fasted, fed) were administered in randomized crossover fashion, separated by one week. For treatments with food a breakfast consisting of two eggs, two strips of bacon, toast with two pats of butter (2×12.5 g), 120 g of fried potatoes and 240 ml of whole milk were consumed in no more than 15 minutes, and the test medication was administered within 5 minutes after completion of the breakfast.
All of the doses of Compound A were administered as the sulfate salt form of Compound A. All of the Compound A doses were tablets containing 200 mg of Compound A. Other ingredients in the tablets included microcrystalline cellulose (Avicel PH 101), mannitol SD 200, croscarmellose sodium, hydroxypropyl cellulose and magnesium stearate. […]
The safety of the subjects was monitored prior and subsequent to dosing by clinical adverse event reporting, measurement of vital signs, physical examinations, blood and urine laboratory safety tests, and ECGs. Plasma concentrations of Compound A were determined predose and at 0.5, 1, 1.5, 2, 3, 4, 6, 8, 12, 16, 20, 24, 30, 36 and 48 hours following each single dose in each period, using a reverse-phase HPLC column switching method with fluorescence detection.

[5] = Compound A in combination with Indinavir
[6] = 200 mg Compound A + 800 mg Indinavir relative to 200 mg Compound A alone

SMILES	IC95 (wild-type HIV-1; Human immunodeficiency virus 1, read-out: CIC95) [nM]	plasma concentrations [1]	effect of Indinavir on inter-individual variation of Compound A plasma concentrations [2, 5]	effect of Indinavir on plasma concentrations of Compound A [2, 5]	inter-individual variation in the plasma levels ([2]; humans, Compound A alone, vs Indinavir)	plasma concentration increase with successively higher doses ([2]; humans, dose proportionality)	plasma concentrations of Compound A ([2]; humans, relative to comparable doses of Indinavir)	IC95 (wild-type HIV-1; Human immunodeficiency virus 1, wild-type HIV-1, Cell Spread Assay, read-out: CIC95) [nM]	potency relative to Indinavir (wild-type HIV-1; wild type HIV-1, in vitro)	AUC increase (times higher) [3, 6]	C8 hrs increase (times higher) [3, 6] [×]	Cmax increase (times higher) [3, 6]	AUC increase (fold higher) ([3]; 600 mg Compound A + 800 mg Indinavir relative to Compound A alone)	Compound A plasma levels, fed versus fasted [4]
CC(C)(C)NC(=O)[C@@H]1CN(Cc2cccnc2)CCN1C[C@@H](O)C[C@@H](Cc1ccccc1)C(=O)N[C@H]1c2ccccc2C[C@H]1O [Indinavir, N-(2(R)-hydroxy-1(S)-indanyl)2(R)-phenylmethyl-4-(S)-hydroxy-5-(1-(4-(3-pyridylmethyl)-2(S)-N'-(t-butylcarboxamido)-piperazinyl))-pentaneamide, reference compound]	50	–	–	–	–	–	–	–	–	–	–	–	–	–
CC(C)(C)NC(=O)[C@@H]1CN(Cc2cc3ccccc3o2)CCN1C[C@@H](O)C[C@@H](Cc1ccccc1)C(=O)N[C@H]1c2ccccc2C[C@H]1O [Compound A, N-(2(R)-hydroxy-1(S)-indanyl)-2(R)-phenylmethyl-4-(S)-hydroxy-5-(1-(4-(2-benzo[b]furanylmethyl)-2(S)-N'-(t-butylcarboxamido)-piperazinyl))-pentaneamide]	–	below the assay quantification limit	markedly reduces inter-individual variation	substantially increase the plasma concentrations	significant inter-individual variation	greater than proportional increases in plasma concentrations	very low plasma concentrations	25	approximately two-fold greater potency than Indinavir	about 30 ×	~46	about 19 ×	about 18 fold	higher Compound A plasma levels

From patent publication US6180634A, “Combination therapy for the treatment of AIDS” (priority 1998, dated 2001)
